Reference: article PMC3731359 (PLoS ONE, 2013)
“Also recorded” adds a separate entry of the source.

What was measured:
NAE [1] = target: T1, NAE (Homo sapiens, UniProt Q13564+Q8TBC4); experiment: ATP/PPi exchange assay (NAE activation kinetics); format: biochemical; details: for activation by NAE: 50 µM heptameric peptide, 0.5 µM NAE, 30 min, room temperature, versus background with no peptide added; for kcat/Km: Nedd8 mimicking heptameric peptides, 0.1 µM NAE, 10–1000 µM peptide, pH 7.5, room temperature
T1 construct: made in house; host or cells: E. coli BL21(DE3)pLysS
T1 sequence (Q8TBC4 22-463 limits assumed): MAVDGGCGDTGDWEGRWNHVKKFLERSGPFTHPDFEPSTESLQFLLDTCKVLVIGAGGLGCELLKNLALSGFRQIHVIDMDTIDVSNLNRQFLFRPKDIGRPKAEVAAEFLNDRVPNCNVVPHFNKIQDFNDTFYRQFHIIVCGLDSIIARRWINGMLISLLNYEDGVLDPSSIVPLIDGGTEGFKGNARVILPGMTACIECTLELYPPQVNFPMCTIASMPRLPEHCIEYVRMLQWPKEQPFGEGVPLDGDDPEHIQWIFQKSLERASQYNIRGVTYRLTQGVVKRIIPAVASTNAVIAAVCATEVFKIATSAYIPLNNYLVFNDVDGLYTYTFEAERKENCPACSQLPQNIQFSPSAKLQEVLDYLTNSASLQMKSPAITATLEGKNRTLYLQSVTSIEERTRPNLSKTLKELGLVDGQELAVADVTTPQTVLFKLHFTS
T1 sequence (Q13564 1-534 partner): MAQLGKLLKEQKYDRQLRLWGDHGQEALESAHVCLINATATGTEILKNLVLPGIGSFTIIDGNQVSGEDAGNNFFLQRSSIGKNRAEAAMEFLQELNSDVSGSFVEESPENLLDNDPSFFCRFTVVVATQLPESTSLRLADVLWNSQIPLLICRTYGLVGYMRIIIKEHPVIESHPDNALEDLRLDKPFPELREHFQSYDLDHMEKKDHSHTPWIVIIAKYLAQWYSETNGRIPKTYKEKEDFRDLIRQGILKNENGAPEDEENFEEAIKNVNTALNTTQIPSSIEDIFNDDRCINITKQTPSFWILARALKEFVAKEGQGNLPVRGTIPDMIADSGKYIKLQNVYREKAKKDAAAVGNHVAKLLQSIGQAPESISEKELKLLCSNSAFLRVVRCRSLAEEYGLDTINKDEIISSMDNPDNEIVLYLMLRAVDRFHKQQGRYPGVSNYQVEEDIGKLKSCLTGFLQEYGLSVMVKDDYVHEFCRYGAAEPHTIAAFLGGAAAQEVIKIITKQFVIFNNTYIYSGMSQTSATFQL
Excerpt: We used the ATP/PPi exchange assay [28], [29] to measure the kinetics of NAE activation of UB mutants. In this assay, NAE catalyzes the condensation of UB with ATP to form a UB-AMP conjugate coupled to the release of PPi. Externally added PPi labeled with the radioactive isotope ^32P sets the reaction in reverse thus incorporating ^32PPi into ATP. Radioactive ATP formed in the reaction is captured by charcoal and quantified. The rate of ^32PPi exchange into ATP reflects the reactivities of NAE with the UB variants to form UB-AMP intermediates.
The reaction was incubated for 30 min at room temperature and then quenched by the addition of 0.5 mL slurry of charcoal in 2% trichloroacetic acid. After centrifugation, the charcoal pellet was washed 3 times each time with 1 mL 2% trichloroacetic acid, and eventually resuspended in 0.5 mL water and 3.5 mL Ultima Gold LSC-cocktail (Perkin Elmer). The radioactivity bound to charcoal was determined by liquid scintillation counting.
The reaction was incubated at room temperature for 5, 10, 15, 20 and 25 minutes before it was quenched with the addition of 0.5 mL slurry of charcoal in 2% trichloroacetic acid. The radioactivity incorporated into charcoal-bound ATP was measured by liquid scintillation counting. K1/2 and kcat values of the ATP-PPi exchange reaction were calculated by fitting the data to the Michaelis-Menten equation with the data analysis software Origin. To measure peptide activation by NAE, 0.1 µM NAE was used in the reaction with the concentration of the peptides varying from 10 µM to 1000 µM.

NAE [2] = target: T1, NAE; experiment: Western blot: peptide∼NAE thioester conjugate formation; format: biochemical; details: 5 µM peptide biotin-conjugated at N-terminus, 1 µM NAE, 1 mM ATP, 1 h, room temperature, streptavidin-HRP blot
Procedure: (§1) The peptides were conjugated to biotin at their N-termini. The Uba3 subunit of NAE formed the thioester conjugate with the peptides. The Western blot was probed with streptavidin conjugated to HRP.
(§2) Biotin Conjugation of the Peptides
(§3) Heptameric peptides with the C-terminal sequences of wt UB, wt Nedd8, and UB variants from phage selection were ordered from EZBiolab (Carmel, Indiana). The peptides were further purified by HPLC to be more than 95% pure. Peptide pN1 (2 mg, […]) was added to a solution of N-hydroxysuccinimidyl-6′-(biotinamido)-6-hexanamido hexanoate (NHS-LC-LC-biotin, Pierce) (4.4 mg, 7.750 µmol) in 50 mM sodium phosphate buffer (pH 7.0, 300 µL) and DMSO (300 µL). The reaction was allowed to proceed by stirring overnight at room temperature. The reaction mixture was then purified by HPLC with a gradient of 5–85% acetonitrile in 0.1% TFA/water at a flow rate of 10 mL/min over the course of 25 minutes. Biotin was conjugated to the N-terminal amino groups of the peptides pN7 and N26 with the same procedure. The purified biotin-peptide conjugates were lyophilized, and their identities were confirmed via MALDI-TOF mass spectrometry (positive mode): biotin-pN1 (VWLSYGG), calculated: 1256.10 Da (MNa^+), found: 1254.87 Da; biotin-pN7 (VMLFYGG), calculated: 1261.19 Da (MNa^+), found:1260.49 Da; biotin-pN26 (VLALRGG), calculated: 1138.06 Da (MH^+), found:1137.78 Da.
(§4) To assay the transfer of biotin conjugated peptides to NAE, Ubc12 and cullin, 5 µM biotin labeled peptide, 1 µM NAE, 1 µM Ubc12 and 1 µM cullin were incubated with 1 mM ATP, 10 mM MgCl2 and 50 µM DTT in the TBS buffer for 1 hour at room temperature before SDS-PAGE and membrane blotting. The membrane was blocked with 3% BSA in TBS buffer for 1 hour followed by incubation with 3% BSA in TBS buffer containing 1∶10,000 diluted 1 mg/mL streptavidin-horse radish peroxidase conjugate (Pierce) for 1 hour. The membrane was then washed 5 times with TBS-T buffer and 5 times with TBS buffer followed by detection with the ECL luminescent detection kit.

Ubc12 [3] = experiment: Western blot: peptide transfer to Ubc12; format: biochemical; details: 5 µM peptide biotin-conjugated at N-terminus, 1 µM NAE, 1 µM Ubc12, 1 µM cullin, 1 h, room temperature, streptavidin-HRP blot
Procedure: as §1, §2, §3, §4

cullin 3 = experiment: Western blot: peptide transfer to cullin 3; format: biochemical; details: 5 µM peptide biotin-conjugated at N-terminus, 1 µM NAE, 1 µM Ubc12, 1 µM cullin, 1 h, room temperature, streptavidin-HRP blot
Procedure: as §1, §2, §3, §4

NAE [4] = target: T1, NAE; experiment: Inhibition of Nedd8 transfer through the cascade: NAE conjugate; format: biochemical; details: 5–200 µM peptide, 0.5 µM NAE, 0.5 µM Ubc12, 1 µM cullin, 1 h, then 5 µM HA-Nedd8, 15 min, Western blot
Excerpt: as §1

Ubc12 [5] = experiment: Inhibition of Nedd8 transfer to Ubc12; format: biochemical; details: 5–200 µM peptide, 0.5 µM NAE, 0.5 µM Ubc12, 1 µM cullin, 1 h, then 5 µM HA-Nedd8, 15 min, Western blot
Excerpt: as §1

cullin-3 = experiment: Inhibition of Nedd8 transfer to cullin (cullin neddylation); format: biochemical; details: 5–200 µM peptide, 0.5 µM NAE, 0.5 µM Ubc12, 1 µM cullin, 1 h, then 5 µM HA-Nedd8, 15 min, Western blot
Excerpt: as §1

[6] = target: T2, Nedd8 activating enzyme (NAE), heterodimer of APPBP1 and Uba3 (UniProt Q13564 1-534; Q8TBC4 33-463); experiment: cell-based or functional assay
T2 sequence 1: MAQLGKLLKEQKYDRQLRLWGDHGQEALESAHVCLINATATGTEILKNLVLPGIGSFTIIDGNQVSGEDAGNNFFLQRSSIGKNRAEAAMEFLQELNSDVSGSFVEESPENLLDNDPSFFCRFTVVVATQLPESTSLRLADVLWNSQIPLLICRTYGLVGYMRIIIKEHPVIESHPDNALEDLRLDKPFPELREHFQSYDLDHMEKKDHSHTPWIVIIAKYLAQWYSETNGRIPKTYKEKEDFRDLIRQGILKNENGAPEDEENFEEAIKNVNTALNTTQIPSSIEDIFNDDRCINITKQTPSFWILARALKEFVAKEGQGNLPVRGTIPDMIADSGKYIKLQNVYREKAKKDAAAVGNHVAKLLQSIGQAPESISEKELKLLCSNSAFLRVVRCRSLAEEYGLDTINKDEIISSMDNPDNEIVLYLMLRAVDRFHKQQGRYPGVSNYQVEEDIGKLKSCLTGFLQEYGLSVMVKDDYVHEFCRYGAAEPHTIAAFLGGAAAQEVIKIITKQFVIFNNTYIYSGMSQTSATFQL
T2 sequence 2: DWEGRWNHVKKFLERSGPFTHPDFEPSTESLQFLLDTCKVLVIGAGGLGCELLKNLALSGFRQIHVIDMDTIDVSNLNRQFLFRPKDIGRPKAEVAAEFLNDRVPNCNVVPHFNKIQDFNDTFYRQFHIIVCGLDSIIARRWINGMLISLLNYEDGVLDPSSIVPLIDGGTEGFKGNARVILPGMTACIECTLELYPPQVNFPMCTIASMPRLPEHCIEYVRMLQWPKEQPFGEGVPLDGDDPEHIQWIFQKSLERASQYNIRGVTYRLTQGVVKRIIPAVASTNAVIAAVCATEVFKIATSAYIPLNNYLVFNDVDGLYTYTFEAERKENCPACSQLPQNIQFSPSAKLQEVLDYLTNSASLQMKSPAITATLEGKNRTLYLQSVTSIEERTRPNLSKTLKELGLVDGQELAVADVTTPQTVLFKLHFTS

VLALRGG [pN26]
activation by NAE (NAE [1]): can be activated at a level significantly higher than the background | formation of peptide∼NAE thioester conjugates (NAE [2]): can form thioester conjugates with NAE | formation of peptide∼Ubc12 conjugates (Ubc12 [3]): strong activity for the formation of peptide∼Ubc12 conjugates | transfer of peptide to cullin 3 (cullin 3): can be further transferred to cullin 3 | Nedd8 conjugates with NAE after preloading with peptide (NAE [4]): did not produce any Nedd8 conjugates with NAE, Ubc12 or cullin | Nedd8 conjugates with Ubc12 after preloading with peptide (Ubc12 [5]): did not produce any Nedd8 conjugates with NAE, Ubc12 or cullin | Nedd8 conjugates with cullin after preloading with peptide (cullin-3): did not produce any Nedd8 conjugates with NAE, Ubc12 or cullin

VMLFYGG [pN7, Nedd8-mimicking heptameric peptide VMLFYGG]
activation by NAE (NAE [1]): can be activated at a level significantly higher than the background | kcat/Km (NAE [1]): 2670 M⁻¹ s⁻¹ | formation of peptide∼NAE thioester conjugates (NAE [2]): can form thioester conjugates with NAE; also recorded: form peptide∼NAE conjugates at a similar level as pN26 | formation of peptide∼Ubc12 conjugates (Ubc12 [3]): only has low activity for transferring to Ubc12 | transfer of peptide to cullin 3 (cullin 3): none of them can form peptide-cullin conjugates at a detectable level | Nedd8 conjugates with NAE after preloading with peptide (NAE [4]): did not produce any Nedd8 conjugates with NAE, Ubc12 or cullin | Nedd8 conjugates with Ubc12 after preloading with peptide (Ubc12 [5]): did not produce any Nedd8 conjugates with NAE, Ubc12 or cullin | Nedd8 conjugates with cullin after preloading with peptide (cullin-3): did not produce any Nedd8 conjugates with NAE, Ubc12 or cullin

VWLSYGG [pN1, Nedd8-mimicking heptameric peptide VWLSYGG]
activation by NAE (NAE [1]): can be activated at a level significantly higher than the background | kcat/Km (NAE [1]): 3000 M⁻¹ s⁻¹ | formation of peptide∼NAE thioester conjugates (NAE [2]): can form thioester conjugates with NAE; also recorded: form peptide∼NAE conjugates at a similar level as pN26 | formation of peptide∼Ubc12 conjugates (Ubc12 [3]): no observable formation of peptide∼Ubc12 conjugates | transfer of peptide to cullin 3 (cullin 3): none of them can form peptide-cullin conjugates at a detectable level | Nedd8 conjugates with NAE after preloading with peptide (NAE [4]): did not produce any Nedd8 conjugates with NAE, Ubc12 or cullin | Nedd8 conjugates with Ubc12 after preloading with peptide (Ubc12 [5]): did not produce any Nedd8 conjugates with NAE, Ubc12 or cullin | Nedd8 conjugates with cullin after preloading with peptide (cullin-3): did not produce any Nedd8 conjugates with NAE, Ubc12 or cullin

VLALRGG [peptide pN26 (70VLALRGG76)]
kcat of the ATP/PPi exchange reaction catalyzed by NAE [6]: 0.433 s⁻¹ | kcat/Km of the ATP/PPi exchange reaction catalyzed by NAE [6]: 4830 M⁻¹ s⁻¹

VWLSYGG [peptide pN1 (70VWLSYGG76)]
Km (K1/2) of the ATP/PPi exchange reaction catalyzed by NAE [6]: 130 µM | kcat of the ATP/PPi exchange reaction catalyzed by NAE [6]: 0.4 s⁻¹ | kcat/Km of the ATP/PPi exchange reaction catalyzed by NAE [6]: 3000 M⁻¹ s⁻¹

VMLFYGG [peptide pN7 (70VMLFYGG76)]
Km (K1/2) of the ATP/PPi exchange reaction catalyzed by NAE [6]: 155 µM | kcat of the ATP/PPi exchange reaction catalyzed by NAE [6]: 0.4 s⁻¹ | kcat/Km of the ATP/PPi exchange reaction catalyzed by NAE [6]: 2670 M⁻¹ s⁻¹
